Biological target: T1, GCase (Homo sapiens, UniProt P04062)
T1 construct: endogenous in cells; host or cells: HeLa cells
T1 sequence (P04062 40-536): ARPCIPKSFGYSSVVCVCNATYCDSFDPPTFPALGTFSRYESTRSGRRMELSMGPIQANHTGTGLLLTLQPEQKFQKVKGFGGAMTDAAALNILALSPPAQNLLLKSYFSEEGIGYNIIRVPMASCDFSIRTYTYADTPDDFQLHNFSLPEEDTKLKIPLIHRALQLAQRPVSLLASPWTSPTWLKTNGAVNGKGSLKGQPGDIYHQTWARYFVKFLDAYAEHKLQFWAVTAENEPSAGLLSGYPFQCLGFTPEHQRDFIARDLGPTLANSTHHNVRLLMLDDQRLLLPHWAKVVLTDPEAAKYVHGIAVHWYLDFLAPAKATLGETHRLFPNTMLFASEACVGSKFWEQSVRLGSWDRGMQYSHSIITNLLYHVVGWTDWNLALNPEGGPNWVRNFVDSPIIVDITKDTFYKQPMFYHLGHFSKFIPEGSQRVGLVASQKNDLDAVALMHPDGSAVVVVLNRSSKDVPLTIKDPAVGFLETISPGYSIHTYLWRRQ
Test: live cell PFB assay in HELA cells for activation of GCase
Assay type: cell-based
Method: Exemplary compounds were evaluated for activation of GCase in a live cell PFB assay in HELA cells (essentially as described in Ysselstein et al., “LRRK2 kinase activity regulates lysosomal glucocerebrosidase in neurons derived from Parkinson's disease patients” Nature Communications (2019) 10:5570). […] EC50 ranges: A: <10 μM; B: >10-50 μM; C: >50-100 μM; D: >100 μM.

Row | SMILES | EC50 [µM]
1 | FC(F)(F)Cn1ncc2ncc(N3CC[C@@H]4CN(c5cc(C(F)(F)F)ccn5)C[C@@H]4C3)nc21 (racemic) [Compound 13] | 10 to 50
2 | FC(F)Cn1ncc2ncc(N3CC[C@@H]4CN(c5ccc(C(F)(F)F)cn5)C[C@@H]4C3)nc21 (racemic) [Compound 8] | < 10
3 | FC(F)Cn1ncc2ncc(N3C[C@@H]4CN(c5cccnc5C(F)(F)F)C[C@H]4C3)nc21 (racemic) [Compound 50, rac-3-[(3aR,6aR)-5-[1-(2,2-difluoroethyl)-1H-pyrazolo[3,4-b]pyrazin-6-yl]-octahydropyrrolo[3,4-c]pyrrol-2-yl]-2-(trifluoromethyl)pyridine] | < 10
4 | O=C1[C@@H]2CN(c3cc(C(F)(F)F)ccn3)C[C@@H]2CN1c1cnc2cnn(CC(F)F)c2n1 (racemic) [Compound 55, rac-(3aR,6aS)-2-[1-(2,2-difluoroethyl)-1H-pyrazolo[3,4-b]pyrazin-6-yl]-5-[4-(trifluoromethyl)pyridin-2-yl]-octahydropyrrolo[3,4-c]pyrrol-1-one] | 10 to 50
5 | FC(F)Cn1ncc2ncc(N3CC[C@H]4CN(c5ccc(C(F)(F)F)cn5)C[C@@H]4C3)nc21 [Compound 69, 1-(2,2-difluoroethyl)-6-((3aS,7aR)-2-(5-(trifluoromethyl)pyridin-2-yl)octahydro-5H-pyrrolo[3,4-c]pyridin-5-yl)-1H-pyrazolo[3,4-b]pyrazine] | 10 to 50
6 | FC(F)Cn1ncc2ncc(NC3C[C@@H]4CN(c5ncccc5C(F)(F)F)C[C@@H]4C3)nc21 (stereo partly drawn) [Compound 41, (3aR,5S,6aS)—N-[1-(2,2-difluoroethyl)-1H-pyrazolo[3,4-b]pyrazin-6-yl]-2-[3-(trifluoromethyl)pyridin-2-yl]-octahydrocyclopenta[c]pyrrol-5-amine] | > 100
7 | FC(F)Cn1ncc2ncc(N3C[C@@H]4CN(c5cccnc5C(F)(F)F)C[C@@H]4C3)nc21 [Compound 49, rac-3-[(3aR,6aS)-5-[1-(2,2-difluoroethyl)-1H-pyrazolo[3,4-b]pyrazin-6-yl]-octahydropyrrolo[3,4-c]pyrrol-2-yl]-2-(trifluoromethyl)pyridine] | 10 to 50
8 | FC(F)Cn1ncc2ncc(N3C[C@H]4CCN(c5ccc(C(F)(F)F)nc5)C[C@H]4C3)nc21 (racemic) [Compound 20, rac-5-[(3aR,7aR)-2-[1-(2,2-difluoroethyl)-1H-pyrazolo[3,4-b]pyrazin-6-yl]-octahydro-1H-pyrrolo[3,4-c]pyridin-5-yl]-2-(trifluoromethyl)pyridine] | 10 to 50
9 | FC(F)Cn1ncc2ncc(N3C[C@H]4CCN(c5ncccc5C(F)(F)F)C[C@H]4C3)nc21 (racemic) [Compound 17] | 10 to 50
10 | FC(F)Cn1ncc2ncc(N3C[C@H]4CCN(c5cncc(C(F)(F)F)c5)C[C@H]4C3)nc21 (racemic) [Compound 14, rac-3-[(3aR,7aR)-2-[1-(2,2-difluoroethyl)-1H-pyrazolo[3,4-b]pyrazin-6-yl]-octahydro-1H-pyrrolo[3,4-c]pyridin-5-yl]-5-(trifluoromethyl)pyridine] | 10 to 50
11 | FC(F)Cn1ncc2ncc(-n3cc4c(n3)CCN(c3ncccc3C(F)(F)F)C4)nc21 [Compound 63, 1-(2,2-difluoroethyl)-6-(5-(3-(trifluoromethyl)pyridin-2-yl)-4,5,6,7-tetrahydro-2H-pyrazolo[4,3-c]pyridin-2-yl)-1H-pyrazolo[3,4-b]pyrazine] | < 10
12 | FC(F)Cn1ncc2ncc(N3C[C@H]4CCN(c5cc(C(F)(F)F)ccn5)C[C@H]4C3)nc21 (racemic) [Compound 11] | 10 to 50
13 | FC(F)Cn1ncc2ncc(N[C@H]3CC[C@@H]4CN(c5cc(C(F)(F)F)ccn5)C[C@@H]4C3)nc21 (single isomer, unassigned) [Compound 72] | < 10
14 | FC(F)Cn1ncc2ncc(N[C@H]3C[C@@H]4CN(c5cncnc5C(F)(F)F)C[C@@H]4C3)nc21 [Compound 89, 1-(2,2-difluoroethyl)-N-((3aR,5s,6aS)-2-(4-(trifluoromethyl)pyrimidin-5-yl)octahydrocyclopenta[c]pyrrol-5-yl)-1H-pyrazolo[3,4-b]pyrazin-6-amine] | < 10
15 | FC(F)Cn1ncc2ncc(N3CC[C@@H]4CN(c5ccncc5C(F)(F)F)C[C@@H]4C3)nc21 (racemic) [Compound 25] | > 100
16 | FC(F)Cn1ncc2ncc(N[C@H]3C[C@@H]4CN(c5cccc(C(F)(F)F)n5)C[C@@H]4C3)nc21 [Compound 34, (3aR,5R,6aS)—N-[1-(2,2-difluoroethyl)-1H-pyrazolo[3,4-b]pyrazin-6-yl]-2-[6-(trifluoromethyl)pyridin-2-yl]-octahydrocyclopenta[c]pyrrol-5-amine] | 10 to 50
17 | FC(F)Cn1ncc2ncc(N[C@H]3C[C@@H]4CN(c5ncc(C(F)(F)F)cn5)C[C@@H]4C3)nc21 [Compound 86, 1-(2,2-difluoroethyl)-N-((3aR,5s,6aS)-2-(5-(trifluoromethyl)pyrimidin-2-yl)octahydrocyclopenta[c]pyrrol-5-yl)-1H-pyrazolo[3,4-b]pyrazin-6-amine] | 10 to 50
18 | FC(F)Cn1ncc2ncc(N[C@@H]3C[C@@H]4CN(c5cccc(C(F)(F)F)n5)C[C@@H]4C3)nc21 [Compound 32, (3aR,5S,6aS)—N-[1-(2,2-difluoroethyl)-1H-pyrazolo[3,4-b]pyrazin-6-yl]-2-[6-(trifluoromethyl)pyridin-2-yl]-octahydrocyclopenta[c]pyrrol-5-amine] | < 10
19 | FC(F)Cn1ncc2ncc(N[C@H]3C[C@@H]4CN(c5nnccc5C(F)(F)F)C[C@@H]4C3)nc21 [Compound 84, 1-(2,2-difluoroethyl)-N-((3aR,5s,6aS)-2-(4-(trifluoromethyl)pyridazin-3-yl)octahydrocyclopenta[c]pyrrol-5-yl)-1H-pyrazolo[3,4-b]pyrazin-6-amine] | > 100
20 | FC(F)Cn1ncc2ncc(N3C[C@H]4CCN(c5cccnc5C(F)(F)F)C[C@H]4C3)nc21 (racemic) [Compound 4, rac-3-[(3aR,7aR)-2-[1-(2,2-difluoroethyl)-1H-pyrazolo[3,4-b]pyrazin-6-yl]-octahydro-1H-pyrrolo[3,4-c]pyridin-5-yl]-2-(trifluoromethyl)pyridine] | < 10
21 | FC(F)Cn1ncc2ncc(N3CC[C@@H]4CN(c5cnccc5C(F)(F)F)C[C@@H]4C3)nc21 (racemic) [Compound 15, rac-3-[(3aR,7aS)-5-[1-(2,2-difluoroethyl)-1H-pyrazolo[3,4-b]pyrazin-6-yl]-octahydro-1H-pyrrolo[3,4-c]pyridin-2-yl]-4-(trifluoromethyl)pyridine] | 10 to 50
22 | FC(F)Cn1ncc2ncc(N3C[C@H]4CCN(c5cccc(C(F)(F)F)n5)C[C@H]4C3)nc21 (racemic) [Compound 6] | < 10
23 | FC(F)Cn1ncc2ncc(N3C[C@@H]4CN(c5ccc(C(F)(F)F)nc5)C[C@H]4C3)nc21 (racemic) [Compound 48, rac-5-[(3aR,6aR)-5-[1-(2,2-difluoroethyl)-1H-pyrazolo[3,4-b]pyrazin-6-yl]-octahydropyrrolo[3,4-c]pyrrol-2-yl]-2-(trifluoromethyl)pyridine] | 10 to 50
24 | FC(F)(F)c1ccnc(N2C[C@H]3CCN(c4cnc5cnn(C6COC6)c5n4)C[C@H]3C2)c1 (racemic) [Compound 1] | < 10
25 | O=C1[C@@H]2CN(c3cccc(C(F)(F)F)n3)C[C@@H]2CN1c1cnc2cnn(CC(F)F)c2n1 (racemic) [Compound 62, rac-(3aR,6aS)-2-[1-(2,2-difluoroethyl)-1H-pyrazolo[3,4-b]pyrazin-6-yl]-5-[6-(trifluoromethyl)pyridin-2-yl]-octahydropyrrolo[3,4-c]pyrrol-1-one] | 10 to 50
26 | O=C1C2CN(c3cnc4cnn(CC(F)F)c4n3)CCC2CN1c1cccc(C(F)(F)F)n1 (centres unmarked) [Compound 65, 5-(1-(2,2-difluoroethyl)-1H-pyrazolo[3,4-b]pyrazin-6-yl)-2-(6-(trifluoromethyl)pyridin-2-yl)octahydro-3H-pyrrolo[3,4-c]pyridin-3-one] | < 10
27 | O=C1CC2CN(c3cccc(C(F)(F)F)n3)CC2CN1c1cnc2cnn(CC(F)F)c2n1 (centres unmarked) [Compound 66, 5-(1-(2,2-difluoroethyl)-1H-pyrazolo[3,4-b]pyrazin-6-yl)-2-(6-(trifluoromethyl)pyridin-2-yl)octahydro-6H-pyrrolo[3,4-c]pyridin-6-one] | 10 to 50
28 | Cn1c(-c2ccccc2)c(C(=O)N2CCN3C[C@H](Oc4cccnc4C(F)(F)F)C[C@H]3C2)c2nccnc21 [Compound 27, 3-{[(7R,8aS)-2-{5-methyl-6-phenyl-5H-pyrrolo[2,3-b]pyrazine-7-carbonyl}-octahydropyrrolo[1,2-a]pyrazin-7-yl]oxy}-2-(trifluoromethyl)pyridine] | 50 to 100
29 | O=C1C2CCN(c3cnc4cnn(CC(F)F)c4n3)CC2CN1c1cccc(C(F)(F)F)n1 (centres unmarked) [Compound 67, 5-(1-(2,2-difluoroethyl)-1H-pyrazolo[3,4-b]pyrazin-6-yl)-2-(6-(trifluoromethyl)pyridin-2-yl)octahydro-1H-pyrrolo[3,4-c]pyridin-1-one] | < 10
